# From the supplement of paper PMC10307832
# Experiments:
# Experiment in all cases: relative viability (nuclei count vs DMSO), 5 days (fraction); higher = more cells survive
# NVP-TAE684 + Palbociclib = compound: COc1cc(N2CCC(N3CCN(C)CC3)CC2)ccc1Nc1ncc(Cl)c(Nc2ccccc2S(=O)(=O)C(C)C)n1 [NVP-TAE684] + CC(=O)c1c(C)c2cnc(Nc3ccc(N4CCNCC4)cn3)nc2n(C2CCCC2)c1=O [Palbociclib] (partner 0.5 µM)
# Procedure, shortened: (§1)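 Relative viability was taken as the ratio of nuclei in treated wells to nuclei in vehicle wells. Lung cancer cell lines in 1536-well plates received compounds by pin tool one day after seeding, either one drug alone or a fixed anchor-drug dose plus five library-drug doses (not always all listed) in √10 steps. Nuclei were counted on 4× images after 5 days of treatment, and values are medians of duplicate plates.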
# Vandetanib + Vorinostat = compound: COc1cc2/c(=N/c3ccc(Br)cc3F)nc[nH]c2cc1OCC1CCN(C)CC1 [Vandetanib] + O=C(CCCCCCC(=O)Nc1ccccc1)NO [Vorinostat] (partner 1 µM)
# Procedure, shortened: as §1
# [1] = compound: C1=CC=C2C(=C1)N=C(S2)C(C#N)C3=NC(=NC=C3)NCCC4=CN=CC=C4 + CS(=O)(=O)N1CCN(Cc2cc3nc(-c4cccc5[nH]ncc45)nc(N4CCOCC4)c3s2)CC1 [Pictilisib] (partner 1 µM)
# Procedure, shortened: as §1
# [2] = compound: C1=CC=C2C(=C1)N=C(S2)C(C#N)C3=NC(=NC=C3)NCCC4=CN=CC=C4 + C[C@@H](Oc1cc(-c2cnn(C3CCNCC3)c2)cnc1N)c1c(Cl)ccc(F)c1Cl [Crizotinib] (partner 1 µM)
# Procedure, shortened: as §1
Cell Line,relative viability (NVP-TAE684 + Palbociclib; first compound 0.2 µM),relative viability (NVP-TAE684 + Palbociclib; first compound 0.6325 µM),relative viability (NVP-TAE684 + Palbociclib; first compound 2 µM),relative viability (Vandetanib + Vorinostat; first compound 0.02 µM),relative viability (Vandetanib + Vorinostat; first compound 0.06325 µM),relative viability (Vandetanib + Vorinostat; first compound 0.2 µM),relative viability (Vandetanib + Vorinostat; first compound 0.6325 µM),relative viability (Vandetanib + Vorinostat; first compound 2 µM),relative viability ([1]; first compound 0.005 µM),relative viability ([1]; first compound 0.01581 µM),relative viability ([1]; first compound 0.05 µM),relative viability ([1]; first compound 0.1581 µM),relative viability ([1]; first compound 0.5 µM),relative viability ([2]; first compound 0.005 µM),relative viability ([2]; first compound 0.01581 µM),relative viability ([2]; first compound 0.05 µM),relative viability ([2]; first compound 0.5 µM),relative viability ([2]; first compound 0.1581 µM)
NCI-H2405,0.524,0.525,0.337,1.02,0.885,0.97,1.14,0.898,0.456,0.378,0.397,0.506,0.422,0.819,0.915,0.872,0.809,–
NCI-H2087,0.206,0.22,0.248,0.755,0.604,0.657,0.614,0.922,0.873,0.856,0.883,1.04,0.92,0.908,0.807,0.76,0.727,0.954
NCI-H2023,0.291,0.358,0.116,0.563,0.516,–,0.561,0.489,0.283,0.205,0.209,0.265,0.239,0.592,0.568,0.604,0.483,0.706
NCI-H3122,0.103,0.0833,0.0801,0.95,0.965,1.08,1.02,0.994,0.62,0.655,0.603,0.613,0.64,0.245,0.305,0.279,0.296,0.296
ChaGo-K-1,1.04,–,0.7,0.735,0.765,0.767,0.797,0.798,0.655,–,0.445,0.953,0.662,0.761,–,1.2,1.02,1.29
NCI-H2347,0.449,0.453,0.359,0.643,0.387,0.575,0.678,0.574,0.474,0.695,0.659,0.756,0.609,0.724,0.669,0.533,0.723,0.699
NCI-H460,0.183,0.168,0.098,0.632,0.674,0.685,0.654,0.674,0.355,0.306,0.358,0.506,0.353,–,0.908,0.71,0.902,0.873
HCC-827,0.452,0.511,0.5,0.788,0.82,0.815,0.369,0.327,0.982,0.912,0.864,1.25,1.09,0.874,0.945,0.907,0.905,0.958
HOP-62,0.54,0.501,0.491,0.553,0.574,0.651,0.686,0.811,0.585,0.672,0.646,0.945,0.775,0.779,0.815,0.675,0.725,1.01
NCI-H1792,0.606,0.615,0.648,–,–,–,–,–,–,0.312,0.285,0.246,0.225,–,1.08,0.997,0.616,1.33
HCC-15,0.63,0.7,0.587,0.832,0.796,0.782,0.89,0.816,0.733,0.74,0.72,0.855,0.685,0.734,0.851,0.833,0.776,1.02
NCI-H1755,0.441,0.472,0.401,0.768,0.818,0.773,0.709,0.709,0.392,0.35,0.379,0.576,0.384,0.809,0.964,0.844,0.831,1.02
NCI-H23,0.439,0.5,0.241,0.55,0.585,0.517,0.608,0.598,–,0.464,0.455,0.508,0.511,–,0.602,0.433,0.35,0.544
BEN,0.486,0.479,0.495,0.6,0.56,0.613,0.552,0.569,0.59,0.509,0.584,0.576,0.561,0.668,0.924,0.82,0.806,0.785
NCI-H1651,0.506,0.572,0.468,0.53,0.618,0.62,0.535,0.593,0.364,0.585,0.68,0.815,0.565,0.746,0.883,0.855,0.849,0.864
NCI-H2126,0.34,0.329,0.327,0.801,0.736,0.703,0.702,0.699,0.499,0.493,0.417,0.526,0.487,0.825,0.989,1.02,0.881,1.04
EKVX,0.358,0.351,0.34,0.727,0.697,0.732,0.776,0.382,0.497,0.422,0.45,0.479,0.457,0.775,1.03,0.986,0.573,0.895
NCI-H1650,0.297,0.299,0.211,0.525,0.502,0.599,0.544,0.452,0.488,0.529,0.559,0.723,0.471,0.609,0.852,0.865,0.57,1.01
NCI-H1703,–,–,–,–,–,–,–,–,0.242,0.223,0.218,0.261,0.252,0.666,0.684,0.536,0.458,0.542
NCI-H727,0.638,0.623,0.516,1.11,1.18,1.13,1.26,0.992,0.553,0.304,0.299,0.473,0.37,0.793,0.803,0.739,0.529,0.836
NCI-H838,0.199,0.197,0.141,0.731,0.679,0.772,0.78,0.68,0.463,0.413,0.439,0.612,0.391,0.546,0.87,0.817,0.555,0.861

Cell Line,relative viability (NVP-TAE684 + Palbociclib; first compound 0.2 µM),relative viability (NVP-TAE684 + Palbociclib; first compound 0.6325 µM),relative viability (NVP-TAE684 + Palbociclib; first compound 2 µM),relative viability (Vandetanib + Vorinostat; first compound 0.02 µM),relative viability (Vandetanib + Vorinostat; first compound 0.06325 µM),relative viability (Vandetanib + Vorinostat; first compound 0.2 µM),relative viability (Vandetanib + Vorinostat; first compound 0.6325 µM),relative viability (Vandetanib + Vorinostat; first compound 2 µM),relative viability ([1]; first compound 0.005 µM),relative viability ([1]; first compound 0.01581 µM),relative viability ([1]; first compound 0.05 µM),relative viability ([1]; first compound 0.1581 µM),relative viability ([1]; first compound 0.5 µM),relative viability ([2]; first compound 0.005 µM),relative viability ([2]; first compound 0.01581 µM),relative viability ([2]; first compound 0.05 µM),relative viability ([2]; first compound 0.5 µM),relative viability ([2]; first compound 0.1581 µM)
NCI-H1944,0.313,0.321,0.236,0.51,0.542,0.526,0.476,0.602,0.369,0.33,0.355,0.362,0.319,1.15,1.18,1.02,1.1,1.12
SK-LU-1,0.352,0.388,0.333,0.879,0.494,0.798,0.918,0.767,–,0.643,0.6,0.651,0.552,–,0.853,0.95,0.907,1.16
LC-2-ad,0.43,0.482,0.32,0.686,0.673,0.714,0.709,0.462,0.437,0.524,0.487,0.556,0.426,0.413,–,0.425,0.414,0.502
LOU-NH91,0.548,0.504,0.502,0.942,0.806,0.559,0.883,0.886,0.51,0.515,0.477,0.533,0.489,0.709,0.786,0.689,0.685,0.695
NCI-H2009,0.2,0.183,0.203,0.724,0.638,0.727,0.783,0.756,0.853,0.644,0.845,1,0.835,1,0.991,0.97,0.976,1.08
NCI-H647,0.352,0.337,0.223,0.514,0.569,0.684,0.715,0.432,–,0.301,0.391,0.556,0.452,–,1,0.89,0.874,1.38
NCI-H1666,0.642,0.713,0.617,1.06,0.968,1.09,0.964,0.993,0.474,0.39,0.369,0.402,0.332,1.07,0.975,1.01,0.907,1
A-427,0.539,0.527,0.431,0.809,0.85,0.903,0.842,0.911,0.723,0.664,0.726,0.844,0.878,0.69,0.979,0.984,0.899,0.951
NCI-H1395,0.618,0.639,0.54,0.622,0.881,0.495,0.63,0.596,0.602,–,0.651,0.781,0.81,–,–,–,–,–
EBC-1,–,–,–,–,–,–,–,–,0.398,0.363,0.352,0.368,0.275,0.236,0.172,0.189,0.22,0.224
NCI-H2342,0.499,0.459,0.457,0.754,0.674,0.785,0.739,0.645,–,–,–,–,–,–,–,–,–,–
SW 900,0.576,0.456,0.43,0.692,0.528,–,0.425,0.429,–,–,–,–,–,–,–,–,–,–
IA-LM,–,–,–,1.06,0.969,0.935,1.06,0.874,0.25,0.368,0.285,0.387,0.377,–,0.985,0.922,0.808,0.808
NCI-H522,0.973,0.99,0.893,0.947,0.962,0.85,0.874,0.936,–,–,–,–,–,–,–,–,–,–
NCI-H1299,–,–,–,–,–,–,–,–,0.682,0.941,0.807,0.875,0.834,0.943,0.964,0.989,0.871,0.95
NCI-H596,–,–,–,1.37,0.562,0.657,0.666,0.693,0.378,0.349,0.383,0.46,0.392,0.864,1.03,0.939,0.952,1.16
NCI-H1563,–,–,–,–,–,–,–,–,0.642,0.619,0.677,0.709,0.647,0.86,0.843,0.838,0.815,0.814
NCI-H1793,0.297,0.302,0.239,0.716,0.618,0.651,0.648,0.624,0.329,0.275,0.353,0.267,0.352,–,–,–,–,–
NCI-H1648,0.241,0.295,0.202,0.473,0.506,0.596,0.375,0.627,–,–,–,–,–,–,–,–,–,–
A549,–,–,–,–,–,–,–,–,0.379,0.487,0.414,0.62,0.496,0.539,0.795,0.837,0.554,0.705
Calu-6,–,–,–,–,–,–,–,–,0.74,0.885,0.938,0.932,0.806,0.479,0.771,0.831,0.638,0.907
